Data on two compounds can be found in patent US6432979B1, “Method of treating or inhibiting colonic polyps and colorectal cancer” (American Cyanamid Company, priority 1999, dated 2002).

This experiment deals with intestinal polyps (adenomas). The experiment in a line: in vivo standard pharmacological test procedure emulating familial adenomatous polyps (FAP) using the Min mouse; polyp count. More on the design: species or system Min mouse (C57BL/6J-Min/+). As to conditions: for Number of Polyps: 60 days. An excerpt: The procedure described below emulates familial adenomatous polyps (FAP) in humans using the Min mouse (C57BL/6J-Min/+), which is a strain which has lost […] copies of the APC gene. These animals develop multiple intestinal polyps (adenomas) that ultimately progress to form adenocarcinomas. The polyps that develop in Min mice express EGFR and have activated COX-2. […] The following briefly describes the procedure used and the results obtained in this standard pharmacological test procedure.
The animals were treated for 60 days. The food was weighed once per week to determine consumption, and the animals also weighed weekly. On day 61, the animals were euthanized with CO2 inhalation, and the entire intestinal tract from stomach to anus was removed. The intestinal tract was injected with Bouins fixative, and allowed to fix for several days. The intestinal tracts were then opened and the number of polyps counted. Statistical analysis was performed using the Student's t-Test; a p value of ≦0.05 is considered statistically significant.
The above standard pharmacological test procedure was run again using (4-dimethylamino-but-2-enoic acid [4-(3-chloro-4-fluoro-phenylamino)-3-cyano-7-ethoxy-quinolin-6-yl]-amide as a representative EGFR kinase inhibitor, as follows. Test animals were divided into four treatment groups: Group I, control; Group II, (4-dimethylamino-but-2-enoic acid [4-(3-chloro-4-fluoro-phenylamino)-3-cyano-7-ethoxy-quinolin-6-yl]-amide Group III, sulindac; and Group IV, combination of sulindac and (4-dimethylamino-but-2-enoic acid [4-(3-chloro-4-fluoro-phenylamino)-3-cyano-7-ethoxy-quinolin 6-yl]-amide. The test compound was blended with a standard murine chow and animals were given ad libitum access to the food, in quantities corresponding to the following approximate daily dosages: Group II—20 mg/kg/(4-dimethylamino-but-2-enoic acid [4-(3-chloro-4-fluoro-phenylamino)-3-cyano-7-ethoxy-quinolin-6-yl]-amide, Group III—5 mg/kg/day sulindac; and Group IV—20 mg/kg/(4-dimethylamino-but-2-enoic acid [4-(3-chloro-4-fluoro-phenylamino)-3-cyano-7-ethoxy-quinolin-6-yl]-amide and 5 mg/kg/day sulindac. The animals were treated for 60 days. The food was weighed once per week to determnine consumption, and the animals also weighed weekly. On day 61, the animals were euthanized with CO2 inhalation, and the entire intestinal tract from stomach to anus was removed. The intestinal tract was injected with Bouins fixative, and allowed to fix for several days. The intestinal tracts were then opened and the number of polyps counted. Statistical analysis was performed using the Students t-Test; a p value of ≦0.05 is considered statistically significant.

As for `CC#CC(=O)Nc1ccc2ncnc(Nc3cccc(Br)c3)c2c1`, for the setting “first run, 40 mg/kg/day in chow, counted day 61, control 32.3 ± 20.7”, the “Number of Polyps” value was 15.6 ± 10.6.

For `CC1=C(CC(=O)O)c2cc(F)ccc2/C1=C\c1ccc([S+](C)[O-])cc1` (stereo not shown) [sulindac], the “Number of Polyps” value reads like this: (first run, 20 mg/kg/day sulindac in chow, counted day 61, control 32.3 ± 20.7) 10.0 ± 6.6; (third run, 5 mg/kg/day sulindac in chow, control 19.5 ± 14.1) 20.6 ± 11.8. For the same compound, under “third run, sulindac alone at the 5 mg/kg dose”, the “reduction of polyp numbers (in words)” value is reported as “did not reduce polyp numbers at all”.
